We go through 54 compounds from patent US20230109839A1, “THERAPEUTIC AGENT FOR TAUOPATHIES” (SUMITOMO PHARMA CO., LTD., priority 2020, published 2023).

In the first test the target is T1, human Nav1.1 (Homo sapiens, UniProt P35498).
T1 construct: host or cells: HEK293
As to the kind of experiment: Amplification of Nav1.1-derived voltage-gated sodium current (Nav1.1 current), automated patch clamp (Test 1). The class given is cell-based. Conditions: Concentration for evaluation 1 μM; HEK293 cell line stably expressing human Nav1.1. Here is the method:
Test 1: Evaluation of the Amplification of Nav1.1-Derived Voltage-Gated Sodium Current (Nav1.1 Current) by Using a Cell Line Stably Expressing Human Nav1.1
(1) Preparation of Test Compound Solution
Test compounds were prepared by dissolving in DMSO at 200 times of the concentration at evaluation, and diluting the obtained solution to twice the concentration of evaluation with an extracellular fluid (135 mmol/L NaCl, 4 mmol/L KCl, 1 mmol/L MgCl2, 5 mmol/L CaCl2, 5 mmol/L Glucose, 10 mmol/L HEPES).
(2) Induction and Measurement of Nav1.1 Current
A HEK293 cell line stably expressing human Nav1.1 (cat #CYL3009, Eurofins DiscoverX Products, LLC, Human Embryonic Kidney 293) was purchased, and used in the present test. Nav1.1 current was induced by stimulating Ramp wave voltage. Detection of current which accompanied with the stimulation of voltage was carried out by a patch-clamp voltage-clamp method using HTS automated patch clamp system (SynchroPatch 768PE, Nanion Technologies GmbH, Germany). Only cells with more than 500 pA of voltage-gated sodium channel current were used for the evaluation of the activity of compounds on Nav1.1 current because there was the possibility that currents derived from endogenous voltage-gated sodium channels accounted for large proportion in cells with less than 500 pA of voltage-gated sodium channel current which was induced by stimulating Ramp wave voltage.
(3) Pharmacological Effect on Nav1.1 Current
The effect of test compounds on the amplification of Nav1.1-derived voltage-gated sodium current was evaluated by using a cell line stably expressing human Nav1.1 and HTS automated patch clamp system. In other words, test compounds were added in an extracellular fluid containing 1% DMSO, and evaluated as a change of the peak value of Nav1.1 current and the area under the curve (AUC).
(4) Method for Pharmacological Evaluation
The Nav1.1 current amplification rates of test compounds were calculated by the following formula:
Nav1.1 current amplification rate (%)=100×[the peak value of Nav1.1 current or the area under the curve after the addition of test compounds]/[the peak value of Nav1.1 current or the area under the curve before the addition of test compounds]−100
For orientation: Patch clamp records ionic current or voltage across a cell membrane.
Take `O=C(Cn1ncc2ncc(C3=CCC4(CC3)CC4)nc21)Nc1ccc2ncnn2c1` [Example 656]: the “Nav1.1 current amplification rate (%)” value was determined as 70%.
In the case of `CN(CC1CCC1)c1cnc2cnn(CC(=O)Nc3ccn4ncnc4c3)c2n1` [Example 625], the “Nav1.1 current amplification rate (%)” value is recorded as 255%.
For the compound `CC1CC=C(c2ccc(=O)n(CC(=O)Nc3cncc(C4=COCCC4)c3)n2)CC1` (stereo not drawn) [Example 382], the “Nav1.1 current amplification rate (%)” value came out at 13%.
On to `CN(c1cnc2cnn(CC(=O)Nc3ccc4cnncc4c3)c2n1)C1CC1` [Example 733], for which the “Nav1.1 current amplification rate (%)” value was 76%.
Still for that read-out and setting: in the case of `O=C(Cn1ncc2ncc(N3CCC4(CC4)C(F)(F)C3)nc21)Nc1ccc2ncnn2c1` [Example 659] it was 25%.
On the same count and under the same terms, with `CN(c1cnc2cnn(CC(=O)Nc3ccc4cnccc4c3)c2n1)C1CC1` [Example 706] the figure was 195%; with `O=C(Cn1ncc2ncc(C3=CCC4(CC3)CC4(F)F)nc21)Nc1ccc2ncnn2c1` (stereo not drawn) [Example 660], 64%.
Still for that read-out and setting: in the case of `CC1CC=C(c2ccc(=O)n(CC(=O)N3CCc4c(CNC5CCOC5)cccc43)n2)CC1` (stereo not drawn) [Example 316] it was 81%; in that of `CC1CC=C(c2ccc(=O)n(CC(=O)N3CCc4c3ccnc4-c3cn[nH]c3)n2)CC1` (stereo not drawn) [Example 285], 113%; in that of `Cc1nc2ccc(NC(=O)Cn3nc(C4=CCC(C)CC4)ccc3=O)cn2n1` (stereo not drawn) [Example 347], 37%.
For the compound `CN(c1cnc2cnn(CC(=O)Nc3ccn4ccnc4c3)c2n1)C1CCCC1` [Example 670], the “Nav1.1 current amplification rate (%)” value is given as 77%.
Same read-out and setting: in the case of `CN1CCN(c2cccc3c2CCN3C(=O)Cn2ncc3ncc(N(C)C4CC4)nc32)CC1` [Example 716] it was 45%.
As to `COc1cc(C2=CCC(C)(C)CC2)nn(CC(=O)N2CCc3c(N4CCOCC4)cccc32)c1=O` [Example 468], the “Nav1.1 current amplification rate (%)” value stood at 275%.
As to `Cc1ccc(-c2ncc3cnn(CC(=O)Nc4ccn5ncnc5c4)c3n2)cc1` [Example 787], the “Nav1.1 current amplification rate (%)” value is 50%.
On to `CN(c1cnc2cnn(CC(=O)Nc3ccc4oc(C(F)F)nc4c3)c2n1)C1CCCC1` [Example 678], for which the “Nav1.1 current amplification rate (%)” value amounted to 132%.
Still for that read-out and setting: with `CC1CC=C(c2ccc(=O)n(CC(=O)Nc3ccc(-n4ccnc4)nc3)n2)CC1` (stereo not drawn) [Example 377] the figure was 134%; with `O=C(Cn1ncc2cnc(N3CCC(F)(F)CC3)nc21)Nc1ccn2ncnc2c1` [Example 768], 18%.
Same read-out and setting: in the case of `CC1CC=C(c2ccc(=O)n(CC(=O)N3CCc4c3ccnc4C3=CCN(C(=O)OC(C)(C)C)C3)n2)CC1` (stereo not drawn) [Example 280] it was 10%; in that of `CN(CC1(C)CC1)c1cnc2cnn(CC(=O)Nc3ccc4ncnn4c3)c2n1` [Example 667], 45%.

The test is the same for the next values; noted with them: Concentration for evaluation 3 μM; HEK293 cell line stably expressing human Nav1.1.
On to `Cc1cccc(F)c1Oc1ncc2cnn(CC(=O)Nc3ccn4ncnc4c3)c2n1` [Example 783], for which the “Nav1.1 current amplification rate (%)” value was 11%.
Same read-out and setting: with `CC1CC=C(c2ccc(=O)n(CC(=O)N3CCN(c4cncc(OC(F)F)c4)CC3)n2)CC1` (stereo not drawn) [Example 405] the figure was 268%; with `CN(c1cnc2cnn(CC(=O)N3CC=C(c4cccnc4)CC3)c2n1)C1CC1` [Example 700], 13%; with `O=C(Cn1nc(C2=CCC3(CC2)CC3(F)F)ccc1=O)N1CCc2c(N3CCOCC3)cccc21` (stereo not drawn) [Example 478], 345%.

The test is the same for the next values; noted with them: Concentration for evaluation 10 μM; HEK293 cell line stably expressing human Nav1.1.
Consider `CCN(C)c1cnc2cnn(CC(=O)Nc3ccn4ncnc4c3)c2n1` [Example 623], for which the “Nav1.1 current amplification rate (%)” value came to 25%.
The same measure, in the same setting: in the case of `Cc1ccc(N2CCN(C(=O)Cn3nc(C4=CCC(C)(C)CC4)ccc3=O)CC2)cn1` [Example 443] it was 114%; in that of `CC1CC=C(c2ccc(=O)n(CC(=O)N3C[C@@H](C)N(c4cccnc4)[C@@H](C)C3)n2)CC1` (stereo partly drawn) [Example 416], 383%.
The same measure, in the same setting: in the case of `O=C(Cn1nc(C2=CCC(C(F)(F)F)CC2)ccc1=O)N1CCN(c2cncc(F)c2)CC1` (stereo not drawn) [Example 487] it was 190%; in that of `N#Cc1ccc(NC(=O)Cn2nc(C3CCCCC3)ccc2=O)cc1` [Example 40], 20%; in that of `CC1(C)CCCC(c2ccc(=O)n(CC(=O)Nc3ccc(C#N)cc3)n2)C1` (stereo not drawn) [Example 46], 85%.
The same measure, in the same setting: with `CC1CCN(c2ccc(=O)n(CC(=O)Nc3cccc(C#N)c3)n2)CC1` [Example 55] the figure was 111%; with `C[C@H]1CC[C@H](c2ccc(=O)n(CC(=O)Nc3ccc(C#N)cc3)n2)CC1` [Example 43], 174%; with `CC1CCN(c2ccc(=O)n(CC(=O)Nc3ccc4ncoc4c3)n2)CC1` [Example 73], 92%.
For `CC1(C)CC=C(c2ccc(=O)n(CC(=O)N3CCc4c(N5CCOCC5)cccc43)n2)C1` [Example 475], the “Nav1.1 current amplification rate (%)” value came to 633%.
With `CC1CC=C(c2ccc(=O)n(CC(=O)Nc3ccc4oc(C(F)F)nc4c3)n2)CC1` (stereo not drawn) [Example 243], the “Nav1.1 current amplification rate (%)” value is recorded as 276%.
Same read-out and setting: with `CC1CC=C(c2ccc(=O)n(CC(=O)N3CC=C(c4ccccc4)C3)n2)CC1` (stereo not drawn) [Example 388] the figure was 37%; with `Cc1ccc(N2CCN(C(=O)Cn3nc(C4=CCC(C)CC4)ccc3=O)CC2)cn1` (stereo not drawn) [Example 396], 136%.
Turning to `COC1CCN(c2ccc(=O)n(CC(=O)Nc3ccc(C#N)cc3)n2)CC1` [Example 9], the “Nav1.1 current amplification rate (%)” value stood at 11%.
The same measure, in the same setting: in the case of `COc1cc(=O)n(CC(=O)N2CCN(c3cncc(F)c3)CC2)nc1C1=CCC(C)(C)CC1` [Example 490] it was 469%; in that of `CC1CCN(c2ccc(=O)n(CC(=O)Nc3ccc4cnn(C)c4c3)n2)CC1` [Example 83], 45%.
With `CC1CCN(c2ccc(=O)n(CC(=O)Nc3cncc(C#N)c3)n2)CC1` [Example 60], the “Nav1.1 current amplification rate (%)” value worked out at 57%.

The same test, now with this note: Concentration for evaluation 50 μM; HEK293 cell line stably expressing human Nav1.1.
For `Cc1cccc(F)c1Nc1ncc2cnn(CC(=O)Nc3ccn4ncnc4c3)c2n1` [Example 775], the “Nav1.1 current amplification rate (%)” value was 12%.

Staying with this test, now noted: HEK293, Concentration for evaluation 1 μM; HEK293 cell line stably expressing human Nav1.1; read-out: Nav1.1 current amplification rate (%).
For `O=C(Cn1ncc2ncc(N3CCC4(CC4)C(F)(F)C3)nc21)Nc1ccc(-n2ccnc2)nc1` [Example 747], the activation at 1 µM came to 73%.
`Cc1ccc(-c2cnc3cnn(CC(=O)Nc4ccn5ncnc5c4)c3n2)c(F)c1` [Example 574, 2-[6-(2-Fluoro-4-methylphenyl)-1H-pyrazolo[3,4-b]pyrazin-1-yl]-N-([1,2,4]triazolo[1,5-a]pyridin-7-yl)acetamide]: the activation at 1 µM amounted to 303%.

Staying with this test, now noted: HEK293, concentration for evaluation 1 μM; HEK293 stably expressing human Nav1.1; read-out: Nav1.1 current amplification rate (%).
Take `CC1CCN(c2ncc3cnn(CC(=O)Nc4ccn5ccnc5c4)c3n2)CC1` [Example 831]: the activation at 1 µM stood at 128%.

The same test, now with this note: concentration for evaluation 1 μM; HEK293 stably expressing human Nav1.1.
For `CN(c1ncc2cnn(CC(=O)Nc3ccc4ncnn4c3)c2n1)C1CC2(CC2)C1` [Example 820], the “Nav1.1 current amplification rate (%)” value came to 50%.
The same measure, in the same setting: in the case of `O=C(Cn1ncc2cnc(N3CCC4(CC4)C(F)(F)C3)nc21)Nc1ccc2ncnn2c1` [Example 813] it was 105%; in that of `CC1CCN(c2ncc3cnn(CC(=O)Nc4ccc5cncnc5c4)c3n2)CC1` [Example 806], 262%.
On to `CC1CC=C(c2ccc3cnn(CC(=O)Nc4ccn5ncnc5c4)c3n2)CC1` (stereo not drawn) [Example 852], for which the “Nav1.1 current amplification rate (%)” value was found to be 111%.
Still for that read-out and setting: in the case of `O=C(Cn1ncc2cnc(C3=CCC(F)(F)CC3)nc21)Nc1ccc2ncnn2c1` [Example 812] it was 13%; in that of `N#Cc1cnc(NC(=O)Cn2ncc3cnc(N4CCC5(CC5)C(F)(F)C4)nc32)cn1` [Example 828], 108%; in that of `O=C(Cn1ncc2cnc(N3CCC4(CC4)C(F)(F)C3)nc21)Nc1ccc(-n2ccnc2)nc1` [Example 824], 240%.
As to `CC1CC=C(c2ccc3cnn(CC(=O)Nc4ccn5ccnc5c4)c3n2)CC1` (stereo not drawn) [Example 864], the “Nav1.1 current amplification rate (%)” value was 160%.
As for `CC1CCN(c2ccc3cnn(CC(=O)Nc4ccn5ncnc5c4)c3n2)CC1` [Example 853], the “Nav1.1 current amplification rate (%)” value is on record as 82%.
On the same count and under the same terms, in the case of `CN(c1ncc2cnn(CC(=O)Nc3ccc4ncnn4c3)c2n1)C1CCCC1` [Example 814] it was 87%.
